Literature values in patent US20130296280A1, “EUTECTIC MIXTURE COMPRISING CELECOXIB AND POLOXAMER” (priority 2012, published 2013).

Details: oral celecoxib; Drug Metab Dispos. 2000:28:308-314

bioavailability: 22-40%
Compound: Cc1ccc(-c2cc(C(F)(F)F)nn2-c2ccc(S(N)(=O)=O)cc2)cc1 [celecoxib, 4-[5-(4-methylphenyl)-3-(trifluoromethyl)-1H-pyrazol-1-yl]benzenesulfonamide]
